In patent US5486595A, “Tumor necrosis factor inhibitors” (Centecor, Inc., priority 1994, dated 1996):
Where a SMILES comes first, the peptide text is derived from it.

What follows are compounds tested against T1, human TNFα (Homo sapiens, UniProt P01375) (assay: p55 Receptor/IgG Fusion Protein Binding Assay (inhibition of TNFα capture by p55-Ig coated plate)). Conditions: peptide 1 mM; TNFα 25 ng/ml.
T1 construct: purchased Biosource, Camarillo, Calif
T1 sequence (P01375 77-233 limits assumed): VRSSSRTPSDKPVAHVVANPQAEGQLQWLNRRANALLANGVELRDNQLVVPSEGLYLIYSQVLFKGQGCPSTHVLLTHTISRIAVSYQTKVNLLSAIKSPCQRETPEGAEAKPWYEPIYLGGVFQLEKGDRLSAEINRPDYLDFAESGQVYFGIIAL

Row | Compound | inhibition of binding of TNFα to p55TNFr-IgG chimeric construct [%]
1 | SEQ ID NO:36: peptide of the invention that inhibits TNFα; sequence not printed (SAEDSTYTQLWNWVP) | 77
2 | SEQ ID NO:46: peptide of the invention that inhibits TNFα; sequence not printed (SNTTSSTDIARPHQI) | 66
3 | SEQ ID NO:43: peptide of the invention that inhibits TNFα; sequence not printed (PGWYAALSKQEGARL) | 37
4 | SEQ ID NO:35: peptide of the invention that inhibits TNFα; sequence not printed (VADSAEDSTYTQLWN) | 72
5 | SEQ ID NO:49: peptide of the invention that inhibits TNFα; sequence not printed (ARPHQIANVVAIPGN) | 26
6 | SEQ ID NO:44: peptide of the invention that inhibits TNFα; sequence not printed (AAPGTFSNTTSSTDI) | 28
7 | SEQ ID NO:47: peptide of the invention that inhibits TNFα; sequence not printed (TSSTDIARPHQIANV) | 29

Same assay, conditions: peptide 1 mM; TNFα 25 ng/ml; read-out: inhibition of binding of TNFα to p55TNFr-IgG chimeric construct

Row | Compound | inhibition at 1000 µM [%]
8 | CC(C)C[C@H](NC(=O)[C@H](CC(N)=O)NC(=O)[C@H](CCC(=O)O)NC(=O)[C@H](CO)NC(=O)[C@H](Cc1c[nH]c2ccccc12)NC(=O)[C@H](Cc1ccc(O)cc1)NC(=O)[C@H](Cc1c[nH]cn1)NC(=O)[C@H](CCCNC(=N)N)NC(=O)[C@H](Cc1ccc(O)cc1)NC(=O)[C@H](CCC(N)=O)NC(=O)[C@H](CC(N)=O)NC(=O)[C@H](CCCCN)NC(=O)[C@@H](N)CCCNC(=N)N)C(=O)N[C@@H](Cc1ccccc1)C(=O)N[C@@H](CCC(N)=O)C(N)=O [SEQ ID NO:10] | 49
9 | CC(C)C[C@H](NC(=O)[C@H](Cc1ccccc1)NC(=O)[C@H](Cc1ccccc1)NC(=O)CNC(=O)[C@H](C)NC(=O)[C@H](Cc1c[nH]cn1)NC(=O)[C@H](C)NC(=O)[C@@H](NC(=O)[C@H](C)NC(=O)[C@@H](NC(=O)[C@@H](NC(=O)[C@H](CC(N)=O)NC(=O)[C@H](CCC(N)=O)NC(=O)[C@@H](N)CCCCN)[C@@H](C)O)C(C)C)[C@@H](C)O)C(=O)N[C@@H](CCCNC(=N)N)C(N)=O [SEQ ID NO:16, Lysyl-glutaminyl-asparaginyl-threonyl-valyl-alanyl-threonyl-alanyl-histidyl-alanyl-glycyl-phenylalanyl-phenylalanyl-leucyl-arginine Amide] (H-KQNTVATAHAGFFLR-NH2) | 48
10 | CC(C)C[C@H](NC(=O)[C@H](CCCNC(=N)N)NC(=O)[C@H](C)NC(=O)[C@@H](NC(=O)[C@H](CO)NC(=O)CNC(=O)[C@@H]1CCCN1C(=O)[C@H](CCC(=O)O)NC(=O)[C@@H]1CCCN1C(=O)[C@H](C)NC(=O)[C@@H](N)Cc1ccc(O)cc1)[C@@H](C)O)C(=O)N[C@@H](CCCNC(=N)N)C(=O)N[C@@H](CCC(=O)O)C(=O)N[C@@H](Cc1ccc(O)cc1)C(=O)N[C@@H](Cc1ccc(O)cc1)C(N)=O [SEQ ID NO:26] (H-YAPEPGSTARLREYY-NH2) | 71
11 | CC(=O)N[C@@H](C)C(=O)N[C@@H](Cc1ccccc1)C(=O)N[C@@H](CC(N)=O)C(=O)N[C@@H](C)C(=O)N[C@@H](CO)C(=O)N[C@@H](CC(C)C)C(=O)N[C@@H](C)C(=O)N[C@@H](CC(C)C)C(=O)N[C@@H](CC(N)=O)C(=O)NCC(=O)N[C@H](C(=O)N[C@H](C(=O)N[C@@H](Cc1c[nH]cn1)C(=O)N[C@@H](CC(C)C)C(=O)N[C@@H](CO)C(N)=O)C(C)C)[C@@H](C)O [SEQ ID NO:13, Acetyl-alanyl-phenylalanyl-asparaginyl-alanyl-seryl-leucyl-alanyl-leucyl-asparaginyl-glycyl-threonyl-valyl-histidyl-leucyl-serine Amide] (Ac-AFNASLALNGTVHLS-NH2) | 34
12 | C[C@H](NC(=O)[C@H](CCC(=O)O)NC(=O)[C@H](CCCNC(=N)N)NC(=O)[C@H](C)NC(=O)[C@@H](N)CC(=O)O)C(=O)N[C@@H](CCC(=O)O)C(=O)N[C@@H](CO)C(=O)NCC(=O)N[C@@H](CO)C(=O)N[C@@H](Cc1ccccc1)C(=O)N[C@H](C(=O)N[C@@H](C)C(=O)N[C@@H](CO)C(=O)N[C@@H](CCC(=O)O)C(=O)N[C@@H](CC(N)=O)C(N)=O)[C@@H](C)O [SEQ ID NO:5] (H-DAREAESGSFTASEN-NH2) | 58
13 | CC[C@H](C)[C@H](NC(=O)[C@H](CCC(N)=O)NC(=O)[C@@H]1CCCN1C(=O)[C@H](CC(C)C)NC(=O)[C@H](C)NC(=O)[C@H](CC(C)C)NC(=O)[C@H](CCCCN)NC(=O)[C@@H](NC(=O)[C@H](C)NC(=O)[C@H](CCC(=O)O)NC(=O)[C@H](CC(C)C)NC(=O)[C@@H](N)CO)[C@@H](C)O)C(=O)N[C@@H](CCC(=O)O)C(=O)N[C@@H](CC(N)=O)C(=O)N[C@H](C(N)=O)C(C)C [SEQ ID NO:21, Seryl-leucyl-glutamyl-alanyl-threonyl-lysyl-leucyl-alanyl-leucyl-prolyl-glutaminyl-isoleucyl-glutamyl-asparaginyl-valine Amide] (H-SLEATKLALPQIENV-NH2) | 50
14 | CC[C@H](C)[C@H](NC(=O)[C@H](CCC(=O)O)NC(=O)[C@@H](NC(=O)[C@H](CCC(N)=O)NC(=O)CN)C(C)C)C(=O)N[C@@H](CO)C(=O)N[C@@H](CO)C(=O)N[C@@H](C)C(=O)N[C@H](C(=O)N[C@H](C(=O)N[C@@H](CC(=O)O)C(=O)N[C@@H](CCCNC(=N)N)C(=O)N[C@@H](CC(=O)O)C(=O)N[C@H](C(=O)N[C@H](C(N)=O)C(C)C)[C@@H](C)O)C(C)C)[C@@H](C)O [SEQ ID NO:8] (H-GQVEISSATVDRDTV-NH2) | 56
15 | C[C@H](NC(=O)[C@H](CCC(=O)O)NC(=O)[C@H](CCCNC(=N)N)NC(=O)[C@H](C)NC(=O)[C@H](CC(=O)O)NC(=O)[C@@H](NC(=O)[C@H](CC(=O)O)NC(=O)[C@H](CCC(N)=O)NC(=O)CNC(=O)[C@@H]1CCCN1C(=O)CNC(=O)[C@@H]1CCCN1C(=O)[C@H](C)NC(=O)[C@@H](N)CC(=O)O)[C@@H](C)O)C(=O)N[C@@H](CCC(=O)O)C(N)=O [SEQ ID NO:2] (H-DAPGPGQDTDAREAE-NH2) | 62
16 | CC(C)C[C@H](NC(=O)[C@H](Cc1ccccc1)NC(=O)[C@H](Cc1ccccc1)NC(=O)CNC(=O)[C@H](C)NC(=O)[C@H](Cc1c[nH]cn1)NC(=O)[C@H](C)NC(=O)[C@@H](N)[C@@H](C)O)C(=O)N[C@@H](CCCNC(=N)N)C(=O)N[C@@H](CCC(=O)O)C(=O)N[C@@H](CC(N)=O)C(=O)N[C@@H](CCC(=O)O)C(=O)N[C@@H](C)C(=O)N[C@H](C(=O)N[C@@H](CO)C(N)=O)C(C)C [SEQ ID NO:18] (H-TAHAGFFLRENEAVS-NH2) | 68
17 | C[C@H](NC(=O)[C@H](CCC(=O)O)NC(=O)[C@H](CCCNC(=N)N)NC(=O)[C@H](C)NC(=O)[C@H](CC(=O)O)NC(=O)[C@@H](NC(=O)[C@H](CC(=O)O)NC(=O)[C@H](CCC(N)=O)NC(=O)CNC(=O)[C@@H]1CCCN1C(=O)CN)[C@@H](C)O)C(=O)N[C@@H](CCC(=O)O)C(=O)N[C@@H](CO)C(=O)NCC(=O)N[C@@H](CO)C(N)=O [SEQ ID NO:3, Glycyl-prolyl-glycyl-glutaminyl-aspartyl-threonyl-aspartyl-alanyl-arginyl-glutamyl-alanyl-glutamyl-seryl-glycyl-serine Amide] (H-GPGQDTDAREAESGS-NH2) | 53
18 | CC(C)C[C@H](NC(=O)[C@H](Cc1ccccc1)NC(=O)[C@H](Cc1ccccc1)NC(=O)CNC(=O)[C@H](C)N)C(=O)N[C@@H](CCCNC(=N)N)C(=O)N[C@@H](CCC(=O)O)C(=O)N[C@@H](CC(N)=O)C(=O)N[C@@H](CCC(=O)O)C(=O)N[C@@H](C)C(=O)N[C@H](C(=O)N[C@@H](CO)C(=O)N[C@@H](C)C(=O)N[C@@H](CO)C(=O)N[C@@H](CC(N)=O)C(N)=O)C(C)C [SEQ ID NO:19] (H-AGFFLRENEAVSASN-NH2) | 53
19 | CC(C)C[C@H](NC(=O)[C@H](C)NC(=O)[C@H](CC(C)C)NC(=O)[C@H](CO)NC(=O)[C@H](C)NC(=O)[C@H](CC(N)=O)NC(=O)[C@H](Cc1ccccc1)NC(=O)[C@H](C)N)C(=O)N[C@@H](CC(N)=O)C(=O)NCC(=O)N[C@H](C(=O)N[C@H](C(=O)N[C@@H](Cc1c[nH]cn1)C(=O)N[C@@H](CC(C)C)C(=O)N[C@@H](CO)C(N)=O)C(C)C)[C@@H](C)O [SEQ ID NO:14] (H-AFNASLALNGTVHLS-NH2) | 29
20 | CC(C)C[C@H](NC(=O)[C@H](C)NC(=O)[C@H](CC(C)C)NC(=O)[C@H](CO)NC(=O)[C@H](C)NC(=O)[C@H](CC(N)=O)NC(=O)[C@H](Cc1ccccc1)NC(=O)[C@H](C)NC(=O)[C@H](CCC(N)=O)NC(=O)[C@H](Cc1ccccc1)NC(=O)[C@H](CC(C)C)NC(=O)[C@H](CC(N)=O)NC(=O)[C@H](CCC(=O)O)NC(=O)[C@@H](N)CO)C(=O)N[C@@H](CC(N)=O)C(N)=O [SEQ ID NO:24] (H-SENLFQAFNASLALN-NH2) | 21
21 | CSCC[C@H](NC(=O)[C@H](CO)NC(=O)[C@H](CCCNC(=N)N)NC(=O)[C@@H](NC(=O)[C@@H]1CCCN1C(=O)[C@H](CO)NC(=O)[C@@H](NC(=O)[C@H](CO)NC(=O)[C@@H](NC(=O)[C@H](C)N)[C@@H](C)O)[C@@H](C)O)[C@@H](C)O)C(=O)N[C@@H](C)C(=O)N1CCC[C@H]1C(=O)NCC(=O)N[C@@H](C)C(=O)N[C@H](C(N)=O)C(C)C [SEQ ID NO:54] (H-ATSTSPTRSMAPGAV-NH2) | 52
22 | CSCC[C@H](NC(=O)[C@@H]1CCCN1C(=O)[C@H](CC(C)C)NC(=O)[C@H](CC(C)C)NC(=O)[C@H](Cc1ccccc1)NC(=O)[C@H](CO)NC(=O)[C@@H](NC(=O)[C@H](CO)NC(=O)[C@@H]1CCCN1C(=O)[C@H](C)N)[C@@H](C)O)C(=O)NCC(=O)N1CCC[C@H]1C(=O)N[C@@H](CO)C(=O)N1CCC[C@H]1C(=O)N1CCC[C@H]1C(N)=O [SEQ ID NO:62] (H-APSTSFLLPMGPSPP-NH2) | 62
